# What was measured:
# [1] = tested on: Fully differentiated adipocytes; assay: Lipolysis (glycerol release) in fully differentiated adipocytes; format: cell-based, Mouse; details: fully differentiated adipocytes (8 days)
# Procedure: Fully differentiated adipocytes (8 days) previously untreated with Calebin A as described in procedural steps outlined in Example IV were treated with Calebin A at concentrations of 5-30 μM. Lipolysis was linked to the breakdown of lipids into glycerol that was released into the cell culture medium and detected thereof. […] Thus, in another most preferred embodiment, the present invention relates to a method of inducing lipolysis in mammalian adipocytes, said method comprising the step of treating mammalian adipocytes with varying concentrations of Calebin A to bring about the effect of dose dependant lipolysis in said adipocytes. […] Epididymal fat pads were dissected and fixed in 10% buffered formalin for at least 24 hours, then dehydrated with a sequence of ethanol solutions and processed for embedding in paraffin. Sections of 5-6 μm in thickness were cut, de-paraffinized, rehydrated, stained with haematoxylin & eosin (H&E) and subjected to photomicroscopic assessment. Adipocyte size was determined using a Nikon light microscope (Japan) equipped with an ocular micrometer at 200× magnification in 10 random fields per section. […]
# leptin = assay: Estimation of leptin in adipocyte supernatant by ELISA; format: cell-based; details: human adipocytes
# Procedure: 3T3-L1 cells approximately 60×10^4 cells are seeded for 48-72 hrs to get 70-80% confluence. After 48 hrs 200 μl of AIM (Adipogenesis induction medium) freshly prepared is added. 72 hrs later 200 μl APM (Adipogenesis progression medium) with the test compounds in different concentrations is added to the wells. The cells are incubated for 48 hrs in a humidified atmosphere (37° C.) of 5% CO2 and 95% air. The supernatant is collected and stored for the estimation of leptin, adiponectin, IL-6 and TNF-α by ELISA. Cells are fixed by adding 100 μl of 10% formalin and ORO staining is done. OD is read at 492 nm in microplate reader. The results are expressed as IC50 values using Graphpad prism software.
# The percentage of inhibition of adipogenesis is calculated as follows, % inhibition=C−T/[…] Where C-absorbance of Oil red 0 in differentiating/undifferentiated cells T-absorbance of Oil Red-O in sample treated differentiating/undifferentiated cells. The estimation of leptin, adiponectin, IL-6 and TNF-α is done according to user's manual from R&D Systems.
# IL-6 = assay: Serum IL-6 in LPS-injected mice after 6 days oral treatment (ELISA); format: in vivo, Swiss albino mice; details: graded doses, then LPS 1 mg/kg i.v., serum 90 min after LPS
# Procedure: The present inventors also adduce study data on the ability of Calebin A to reduce expression of Extracellular TNF-α, IL-1 beta [FIG. 6] and IL-6 [FIG. 7] in serum from treated mice (in-vivo models). Swiss albino male mice aged 6-8 weeks were maintained at 22±2° C. under 12/12 h light dark cycle. Mice received oral treatment of test drugs at graded doses (w/v) for 6 days, followed by intravenous injection of 1 mg/kg of LPS according to the method described by Brieva A, Guerrero A, Alonso-Lebrero J L and Pivel J P. 2001. Immunoferon, a glycoconjugate of natural origin, inhibits LPS-induced TNF-α production and inflammatory responses. International Immunopharmacology 1, 1979-1987. Six mice were employed in each group and experiments were performed in triplicates. TNF-α, IL-1 beta and IL-6 production was evaluated by a commercial ELISA kits (R&D Systems) in serum from treated mice, 90 min after LPS injection. Rolipram at 30 mg/kg was used as standard drug.
# [2] = Study I: HFD-fed mice, diet supplementation 12 weeks; body weight, food intake, relative organ weights; details: for wt gain / Final wt / relative organ weight: Kidney / relative organ weight: liver: 12 weeks; for wt gain: HFD 16.50 ± 2.90; for Final wt: HFD 38.63 ± 3.92; for relative organ weight: Kidney / relative organ weight: liver: percentage of body weight; for Initial wt: baseline
# Procedure: Male C57BL/6J mice at 5 weeks of age were purchased from the BioLASCO Experimental Animal Center (Taiwan Co., Ltd., Taipei, Taiwan) and housed in a controlled atmosphere (25±1° C. at 50% relative humidity) and with a 12-h light/12-h dark cycle. […] Animals had free access to food and water at all times. Food cups were replenished with fresh diet daily. The diet intake of animals was monitored every day and the body weight was recorded weekly. […] At the end of the study, all animals were fasted overnight and sacrificed by CO2 asphyxiation. Blood samples were collected from the heart for biochemical analysis. Liver, spleen, kidney and fat pads (perigonadal, retroperitoneal and mesenteric fat) were immediately removed, weighed (TABLE VI) and photographed. […] Body weight was monitored weekly, and the average body weight of each group was expressed as the mean±SE. Statistical analysis was done by Student's t test. (*) P<0.01, compared with ND group; (#) P<0.01, compared with HFD group.
# mice = assay: Acute oral toxicity of Calebin A; format: in vivo
# Procedure: No mortality was observed up to 2000 mg/kg p.o. in mice up to two weeks of observation.
compound,measurement,setting,value
COc1cc(/C=C/C(=O)COC(=O)/C=C/c2ccc(O)c(OC)c2)ccc1O [Calebin A],release of glycerol into the medium (lipolysis),[1]; 30 μM,Glycerol was detected
same,release of glycerol into the medium (lipolysis),[1]; 5-20 μM,did not bring about the release of glycerol
same,percentage inhibition of leptin production,leptin; 0.5 μg/ml,34.92%
same,percentage inhibition of leptin production,leptin; 1.0 μg/ml,41.04%
same,percentage inhibition of leptin production,leptin; 2.0 μg/ml,39.48%
same,expression of IL-6 in serum,IL-6,effective in reducing
same,wt gain,[2]; HFD + 0.25% Calebin A,13.02 ± 2.52 g
same,Final wt,[2]; HFD + 0.25% Calebin A,35.28 ± 2.38 g
same,relative organ weight: Kidney,[2]; HFD + 0.25% Calebin A,1.22 ± 0.12%
same,relative organ weight: liver,[2]; HFD + 0.25% Calebin A,4.05 ± 0.28%
same,Initial wt,[2]; HFD + 0.25% Calebin A,22.27 ± 0.49 g
same,wt gain,[2]; HFD + 1% Calebin A,10.12 ± 2.48 g
same,Final wt,[2]; HFD + 1% Calebin A,31.99 ± 2.50 g
same,relative organ weight: Kidney,[2]; HFD + 1% Calebin A,1.30 ± 0.15%
same,relative organ weight: liver,[2]; HFD + 1% Calebin A,4.00 ± 0.25%
same,Initial wt,[2]; HFD + 1% Calebin A,21.88 ± 0.91^ g
same,Autonomic Nervous System: Atexia,"mice; mouse, in vivo, po",Atexia = Nil
same,Autonomic Nervous System: Diarrhea,"mice; mouse, in vivo, po",Diarrhea = Nil
same,Autonomic Nervous System: Motor Activity,"mice; mouse, in vivo, po",Motor Activity = Normal
same,Autonomic Nervous System: Respiration Rate,"mice; mouse, in vivo, po",Respiration Rate = Normal
same,Central Nervous System: Clonic Convulsions,"mice; mouse, in vivo, po",Clonic Convulsions = Nil
same,Central Nervous System: Excitation,"mice; mouse, in vivo, po",Excitation = Nil
same,Central Nervous System: Motor Activity,"mice; mouse, in vivo, po",Motor Activity = Nil
same,Central Nervous System: Tonic Convulsion,"mice; mouse, in vivo, po",Tonic Convulsion = Nil
same,Central Nervous System: Tremors,"mice; mouse, in vivo, po",Tremors = Nil
same,Dermal: Blanching,"mice; mouse, in vivo, po",Blanching = Nil
same,Dermal: Cyanosis,"mice; mouse, in vivo, po",Cyanosis = Nil
same,Dermal: Hyperaemia,"mice; mouse, in vivo, po",Hyperaemia = Nil
same,Food and Water (Intake and Excretion): Fecal Output,"mice; mouse, in vivo, po",Fecal Output = Normal
same,Food and Water (Intake and Excretion): Urine Output,"mice; mouse, in vivo, po",Urine Output = Normal
same,General Behaviour: Aggression,"mice; mouse, in vivo, po",Aggression = Nil
same,General Behaviour: Fear,"mice; mouse, in vivo, po",Fear = Nil
same,General Behaviour: General Locomotor Activity,"mice; mouse, in vivo, po",Normal
same,General Behaviour: General Movement,"mice; mouse, in vivo, po",General Movement = Normal
same,General Behaviour: Passive,"mice; mouse, in vivo, po",Passive = Nil
same,General Parameters: Diarrhea,"mice; mouse, in vivo, po",Diarrhea = Nil
same,General Parameters: Muscular Weakness,"mice; mouse, in vivo, po",Muscular Weakness = Nil
same,General Parameters: Pilo Erection,"mice; mouse, in vivo, po",Pilo Erection = Nil
same,General Parameters: Salivation,"mice; mouse, in vivo, po",Salivation = Nil
same,Reflexes: Corneal,"mice; mouse, in vivo, po",Corneal = No effect
same,Reflexes: Pinnal,"mice; mouse, in vivo, po",Pinnal = No effect
same,Respiratory System: Respiration Depth,"mice; mouse, in vivo, po",Respiration Depth = Normal
same,Respiratory System: Respiration Rate,"mice; mouse, in vivo, po",Respiration Rate = Normal
same,mortality,"mice; up to 2000 mg/kg p.o., up to two weeks of observation",No mortality

# From patent US9737502B2, “Calebin A for hepatic steatosis” (SAMI LABS LIMITED, priority 2011, dated 2017)
